# Test results taken from ChEMBL document CHEMBL5620364, “Structure-affinity relationships of stereoisomers of norbenzomorphan-derived σ2R/TMEM97 modulators” (Eur J Med Chem, 2023).
# Experiments:
# [1] = biological target: T1, Sigma intracellular receptor 2 (Homo sapiens, UniProt Q5BJF2); test: Displacement of [3H](+)-ditolylguanidine from human sigma 2 receptor transfected in human HEK293T cells assessed as inhibition constant in presence of (+)-pentazocine by radioligand competition binding assay; format: cell-based, HEK293
# T1 sequence (Q5BJF2 whole entry): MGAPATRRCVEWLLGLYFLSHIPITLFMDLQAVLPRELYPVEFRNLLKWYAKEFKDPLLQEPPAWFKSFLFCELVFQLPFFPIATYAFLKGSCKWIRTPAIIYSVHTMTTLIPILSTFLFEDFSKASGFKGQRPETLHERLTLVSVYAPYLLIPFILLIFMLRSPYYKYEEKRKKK
# [2] = biological target: T2, Sigma non-opioid intracellular receptor 1 (Homo sapiens, UniProt Q99720); test: Displacement of [3H](+)-pentazocine from sigma 1 receptor in HEK293 cells assessed as inhibition constant by radioligand competition binding assay; format: cell-based
# T2 sequence (Q99720 whole entry): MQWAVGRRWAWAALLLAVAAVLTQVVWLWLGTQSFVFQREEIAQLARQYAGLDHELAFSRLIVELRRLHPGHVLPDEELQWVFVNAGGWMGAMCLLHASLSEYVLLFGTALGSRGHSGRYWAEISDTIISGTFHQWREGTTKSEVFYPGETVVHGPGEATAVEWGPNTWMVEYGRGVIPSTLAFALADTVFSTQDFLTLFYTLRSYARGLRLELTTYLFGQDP
# [3] = biological target: T1, Sigma intracellular receptor 2; test: Binding affinity to sigma 2 receptor (unknown origin) assessed as inhibition constant
# [4] = biological target: T2, Sigma non-opioid intracellular receptor 1; test: Binding affinity to sigma 1 receptor (unknown origin) assessed as inhibition constant
# [5] = biological target: T3, Sigma intracellular receptor 2 (Rattus norvegicus, UniProt Q5U3Y7); test: biochemical
# T3 sequence (Q5U3Y7 whole entry): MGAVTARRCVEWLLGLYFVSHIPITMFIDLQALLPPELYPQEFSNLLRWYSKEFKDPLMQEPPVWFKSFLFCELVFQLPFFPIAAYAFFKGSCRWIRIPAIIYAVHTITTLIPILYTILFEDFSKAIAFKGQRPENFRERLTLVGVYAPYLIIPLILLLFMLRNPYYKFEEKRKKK
# Description: Binding affinity to sigma 2 receptor in rat PC12 cells assessed as inhibition constant
Compound,Ki [1] [µM],Ki [2] [µM],Ki [3] [µM],Ki [4] [µM],Ki [5] [µM]
O=C(OCc1ccccc1)N1CC[C@@H]2C[C@H]1c1cc(N3CCCN(CCCF)CC3)ccc12,0.0222,0.0117,,,
O=C(OCc1ccc(C(F)(F)F)cc1)N1CC[C@@H]2C[C@H]1c1cc(N3CCN(CCCF)CC3)ccc12,0.0209,0.0679,,,
CN(C)C1CCN(c2ccc3c(c2)[C@@H]2C[C@H]3CCN2C(=O)OCc2ccccc2)CC1,,0.14,0.0315,,
O=C(/C=C/c1ccccc1)N1CC[C@@H]2C[C@H]1c1cc(N3CCN(CCCF)CC3)ccc12,,0.185,0.0533,,
O=C(CCc1ccccc1)N1CC[C@@H]2C[C@H]1c1cc(N3CCN(CCCF)CC3)ccc12,,0.0576,0.397,,
COCCN1CCN(c2ccc3c(c2)[C@H]2C[C@@H]3CCN2C(=O)OCc2ccccc2)CC1,0.129,0.312,,,
COCCCN1CCN(c2ccc3c(c2)[C@@H]2C[C@H]3CCN2C(=O)OCc2ccccc2)CC1,,,0.008,0.0592,
CN(C)CCCOC1CN(c2ccc3c(c2)[C@@H]2C[C@H]3CCN2C(=O)OCc2ccccc2)C1,0.0578,0.118,,,
O=C(OCc1ccccc1)N1CC[C@H]2C[C@@H]1c1cc(N3CCN(CCO)CC3)ccc12,0.201,1.74,,,
CN1CC(C(=O)N2CCN(c3ccc4c(c3)[C@@H]3C[C@H]4CCN3C(=O)OCc3ccccc3)CC2)C1,,,0.0352,0.0531,
O=C(OCc1ccccc1)N1CC[C@H]2C[C@@H]1c1cc(N3CCN(CCCF)CC3)ccc12,0.0243,0.0817,,,
O=C(OCc1ccccc1)N1CC[C@@H]2C[C@H]1c1cc(N3CCN(CCCF)CC3)ccc12,0.0092,0.0377,0.0092,,
CCN(CC)C(=O)CCN1CCN(c2ccc3c(c2)[C@@H]2C[C@H]3CCN2C(=O)OCc2ccccc2)CC1,,,0.0124,0.197,
O=C(OCc1ccccc1)N1CC[C@H]2C[C@@H]1c1cc(N3CCN(C4CCC4)CC3)ccc12,0.0343,0.0507,,,
CNCCC(=O)N1CCN(c2ccc3c(c2)[C@@H]2C[C@H]3CCN2C(=O)OCc2ccccc2)CC1,,,0.11,0.189,
CNCCN1CCN(c2ccc3c(c2)[C@@H]2C[C@H]3CCN2C(=O)OCc2ccccc2)CC1,,,0.0609,0.173,
O=C(OCc1ccccc1)N1CC[C@@H]2C[C@H]1c1cc(N3CC4CCC(C3)N4CCCF)ccc12,0.0177,0.0704,,,
Clc1ccc2c(c1)C1CC2CCCN1CCc1ccccc1 (configuration not stated),,,,,0.248
CCCCN1C[C@@H]2CN(c3ccc4c(c3)[C@@H]3C[C@H]4CCN3C(=O)OCc3ccccc3)C[C@@H]2C1,0.0284,0.0502,,,
COCCN1CCN(c2ccc3c(c2)[C@@H]2C[C@H]3CCN2C(=O)OCc2ccccc2)CC1,0.047,0.193,,,
O=C(OCc1ccc(Cl)cc1)N1CC[C@@H]2C[C@H]1c1cc(N3CCN(CCCF)CC3)ccc12,0.0271,0.0949,,,
O=C(OCc1cccc(F)c1)N1CC[C@@H]2C[C@H]1c1cc(N3CCN(CCCF)CC3)ccc12,0.0212,0.0172,,,
CN1CC(CN2CCN(c3ccc4c(c3)[C@@H]3C[C@H]4CCN3C(=O)OCc3ccccc3)CC2)C1,,0.0941,0.0244,,
CN(C)CCN1CCN(c2ccc3c(c2)[C@@H]2C[C@H]3CCN2C(=O)OCc2ccccc2)CC1,,,0.052,0.0834,
O=C(OCc1ccccc1)N1CC[C@@H]2C[C@H]1c1cc(N3CCN(C4CCC4)CC3)ccc12,0.0124,0.0329,,,
O=C(OCc1ccccc1)N1CC[C@@H]2C[C@H]1c1cc(N3CCN(CCO)CC3)ccc12,0.0753,0.51,,,
